# Measured values taken from publication PMC3174134, “Lucanthone and Its Derivative Hycanthone Inhibit Apurinic Endonuclease-1 (APE1) by Direct Protein Binding” (PLoS ONE, 2011).
# Experiments:
# [1] = system: tubulin; assay: Tubulin stability in U251 1-5 whole cell extracts, Western blot; settings: lucanthone 2.5-100 µM; CRT at 200 µM
# Procedure: (§1) Total purified protein concentration was determined by the ratio of A280/A260. 250 ng of APE1 treated with lucanthone or hycanthone (0.05–100 µM) for 2 h at 37°C in final volume of 30 µl were mixed with an equal volume of gel loading buffer (0.001% bromophenol blue, 4% SDS, 10% 2-ME, 20% glycerol, and 125 mM Tris pH 6.8) and denatured at 95°C for 5 min. Total protein concentration in cell extracts was determined using the Bradford assay (BioRad, Hercules, CA) and 25 µg of total protein from soluble or insoluble cell fractions were mixed with an equal volume of gel loading buffer (0.001% bromophenol blue, 4% SDS, 10% 2-ME, 20% glycerol, and 125 mM Tris pH 6.8) and denatured at 95°C for 5 min. This mixture was separated by SDS-PAGE (4% stacking, 7.5% resolving gel) for 2–3 h at 40 mA on a BioRad MiniPROTEAN II Electrophoresis Cell. To detect proteins, proteins were transferred onto a trans-Blot nitrocellulose membrane (0.45 µm; BioRad) overnight at 4°C at 15 mA in standard Tris-Glycine buffer containing 20% ethanol. […] Chemi-luminescence was developed using an ECL kit according to the manufacturer's instructions and detected by exposing the blot to HyperfilmECL for 30 s–3 min. […]
# [2] = molecular target: T1, APE1 (Homo sapiens, UniProt P27695); assay: APE1 cleavage in whole cell extracts of U251 1-5 APE1 overexpressor clone, Western blot with protease inhibitor cocktail; parameters: the full length APE1 protein was successfully expressed and purified; made in house; host or cells: E. coli BL21/DE3; settings: U251 1-5 whole cell extracts, 2 h, 37°C
# Procedure: as §1
# [3] = molecular target: T1, APE1; assay: MALDI-TOF analysis of APE1 degradation; parameters: the full length APE1 protein was successfully expressed and purified; made in house; host or cells: E. coli BL21/DE3; settings: 100 µM drug
# Procedure: 100 nM of APE1 protein was treated with 100 µM of lucanthone, hycanthone or CRT at 37°C for 2 h and 24 h and analyzed on sinipinic acid matrix on a Voyager-DE STR (Applied Biosystems) MALDI-TOF instrument at the Proteomics facility at SUNYSB in a linear mode.
# T1 sequence (P27695 whole entry): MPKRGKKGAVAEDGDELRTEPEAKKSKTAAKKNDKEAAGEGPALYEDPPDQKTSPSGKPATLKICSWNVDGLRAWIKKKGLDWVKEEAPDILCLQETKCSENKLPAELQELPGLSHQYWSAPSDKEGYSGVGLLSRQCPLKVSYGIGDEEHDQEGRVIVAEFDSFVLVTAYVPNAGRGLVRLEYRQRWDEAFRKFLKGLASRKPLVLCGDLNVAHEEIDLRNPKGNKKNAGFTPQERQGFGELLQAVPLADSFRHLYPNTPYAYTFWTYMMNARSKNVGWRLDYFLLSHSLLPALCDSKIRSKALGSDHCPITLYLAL
structure (smiles),measurement,setting,value
"O=C(O)c1cc2cccc([N+](=O)[O-])c2[nH]1 [CRT0044876, 7-Nitroindole-2-carboxylic acid]",Effect on tubulin protein,[1],some shift in its migration
same,Concentration causing cleavage of APE1,[2],200 µM
same,Time at which APE1 degradation is seen by MALDI,[3],24 h
same,APE1 protein fragments by MALDI-TOF,"[3]; 37°C, 2 or 24 h",much less cleavage of APE1
same,Full length 35.5 kDa APE1 peak by MALDI-TOF,"[3]; 37°C, 24 h",still an intact 35.5 kDa peak
